Assay results as given in publication PMC10630888, “Nuclear ERK1/2 signaling potentiation enhances neuroprotection and cognition via Importinα1/KPNA2” (EMBO Molecular Medicine, 2023).
Where “and” joins values, the source holds several entries; their conditions need not be identical. Equal values may be shown once.

What was measured:
[1] = test system: p44 ERK1 and p42 ERK2; assay: Western blot of pERK1/2 and total ERK1/2 in HEK293 cells; assay type: cell-based; settings: serum-starved HEK 293 cells, 50 μM, 15 min
Protocol: For Western blot and immunofluorescence analysis, 0.6 × 10^6 HEK293 cells were seeded in 6‐well plates in the presence of DMEM High Glucose GlutaMax (Thermo Fisher Scientific) containing 10% Foetal Bovine Serum (FBS, Thermo Fisher Scientific) and 100 U/ml penicillin/streptomycin (Thermo Fisher Scientific). For Western blot analysis to assess ERK1/2 and phospho‐ERK1/2 levels, cells were serum starved for 24 h and incubated with RB5 50 μM or FBS 20% for 15 min at 37°C. To assess JNK and phospho‐JNK levels, cells were incubated with RB5 50 μM or anisomycin 5 μM for 30 min at 37°C. For immunofluorescence analysis, cells were serum‐starved for 24 h and incubated with 50 μM RB5 or 20% FBS for 15 min at 37°C.
Cells were collected in ice‐cold lysis buffer (20 mM Tris HCl pH 7.5, 150 mM NaCl, 1% Triton, 1 mM EDTA, complete EDTA‐free protease inhibitor cocktail (Roche), 1 mM sodium orthovanadate, 1 mM sodium fluoride, 1 mM b‐glycerophosphate). Protein concentration was determined with the Biorad DC protein assay. Equal amounts of proteins ([…]) were boiled in sample buffer, separated by SDS‐PAGE, and transferred to nitrocellulose membranes (Amersham). […]

[2] = test system: pERK in CA1; assay: pERK in hippocampal CA1 of Tg2576 mice; assay type: in vivo, mouse; settings: for pERK in hippocampal CA1 (Fig 5 panel j): individual animals
Protocol: Immunohistochemistry was performed as described in Papale et al ([2016]). Briefly, 1 h after blocking in 5% normal goat serum and 0.1% Triton X‐100 solution, free‐floating sections were incubated overnight at 4°C with one of the following primary antibodies: anti‐phospho‐p44/42 MAP kinase (Thr202/Tyr204) (1:200, Cell Signaling Technology #9101), anti‐phospho–Elk‐1 (Ser383) (1:100, Cell Signaling #9181), anti‐phospho‐Kv4.2 (Thr607)‐R (1:100, Santa Cruz sc22254‐R), anti‐phospho‐MSK‐1 (1:100 Cell Signaling Technology #9595), anti‐phospho‐MEK1/2 (Ser218/222) (1:100, sc‐7995 Santa Cruz Biotechnology), c‐Fos (1:100, sc‐52 Santa Cruz Biotechnology), tyrosine Hydroxylase (monoclonal 1:1,000, Sigma Aldrich, Italy) and anti‐DARPP‐32 (H3) (1:100, Santa Cruz Biotechnology, #sc‐271111) overnight at 4°C. Sections were then incubated with biotinylated goat anti‐rabbit IgG (1:200, Vector Laboratories) or biotinylated goat anti‐mouse (1:200, Vector Laboratories) for 2 h. The classic avidin‐peroxidase complex (ABC, Vector, UK) protocol was applied, using 3,3′‐diaminobenzidine (DAB, Sigma) as a chromogen.
Tg2576 mice were administered with RB5 or Scramble (20 mg/kg i.p.) for either 7 days, for IHC analysis, or with a single injection (20 mg/kg i.p.), for behavioral analysis.

[3] = test system: p-ERK in dorsal striatum; assay: In vivo dose response of striatal pERK; parameters: species or system mouse; settings: 1 h after administration, individual mice
Protocol: For the dose response study, 2‐month‐old CD1 male mice were injected with different doses of RB5 (1, 2.5, 5, 10, and 20 mg/kg, i.p.), whereas the control group was injected with 20 mg/kg (i.p.) of SCR peptide. Mice were perfused 1 h later with 4% PFA. For the time course study, mice were injected i.p. with 20 mg/kg of RB5 and perfused at different time points with 4% PFA (1, 3, 6, and 12 h). The control group was injected i.p. with 20 mg/kg of SCR. Brains were postfixed in 4% PFA for 24 h and cryoprotected overnight in sucrose 30% before immunohistochemistry against phospho‐ERK1/2.
Immunohistochemistry was performed as described in Papale et al ([2016]). […]
For in vivo immunohistochemistry experiments, images were acquired from the dorsal striatum using a Leica DM IRB microscope under a 20× objective. The number of p‐ERK, p‐MSK‐1, p‐ELK, p‐MEK‐1, p‐VG K+, c‐Fos, and DARPP‐32 positive cells was counted in 2–3 consecutive sections per mouse, bilaterally and averaged across the sections using the ImageJ software by a blind investigator to the condition. Estimation of nigral cell loss was assessed by quantifying the number of TH‐immunopositive neurons of the SNc in 360 μm‐spaced sections for each animal.

## GRKKRRQRRRPPQGGGGGEPRRTEGVGPGVPGEVEMVKGQPFDV [RB5, six D-amino acids, acetylated N-terminus]
[1]
  p44/p42 protein levels (Western blot): without affecting p44/p42 protein levels
  p44 ERK1 and p42 ERK2 phosphorylation (Western blot): sustained a strong p44 ERK1 and p42 ERK2 phosphorylation
[2]; Tg2576 mice, 7 months old, 20 mg/kg i.p. for 7 days
  ERK phosphorylation in hippocampal CA1: restored ERK phosphorylation
[2]; Tg2576 mice
  pERK in hippocampal CA1 (Fig 5 panel j): 12.58 and 9.08 and 13.47 and 9.49 and 10.2 and 10.95 and 9.29 and 11.78
[2]; WT mice
  pERK in hippocampal CA1 (Fig 5 panel j): 8.46 and 10.53 and 9.48 and 11.97 and 13.27 and 10.48 and 8.7
[3]; 10 mg/kg i.p.
  p-ERK-positive cells in dorsal striatum: significant striatal ERK activation
[3]; 20 mg/kg i.p.
  p-ERK-positive cells in dorsal striatum: significant striatal ERK activation
